Experimental data: US20220257595A1, “MACITENTAN FOR USE IN TREATING PORTOPULMONARY HYPERTENSION” (ACTELION PHARMACEUTICALS LTD, priority 2019, published 2022)
“Also recorded” adds a separate entry of the source.

Test system: patients with PoPH
Assay: PORTICO: right heart catheterization hemodynamics at rest (PVR, mRAP, mPAP, cardiac index, TPR, SVO2, PAWP/LVEDP)
Type: in vivo, human
Protocol: This study was designed as a randomized, double-blind (DB), placebo-controlled, prospective, multicenter, parallel group Phase 4 study assessing the efficacy and safety of macitentan in PoPH. The study design included an OL period following DB End of Treatment (EOT), the details of which are included below. The study design required approximately 84 adult patients with PoPH to be randomized (1:1) to receive either macitentan 10 mg, or matching placebo, once daily (o.d.) orally. Subject allocation to treatment groups was stratified by background PAH specific therapy receipt (yes/no). Stratification by region of enrollment was also performed as the number of enrolled patients per center was expected to be low, and variation in total patient numbers on a country-to-country level was expected. Based on an attrition rate of 10%, it was expected to have 76 evaluable patients at Week 12/End of Treatment (double-blind) (EOT-DB). Subjects were required to have a confirmed diagnosis of PoPH with a PVR of ≥4 Wood units (WU; ≥320 dyn·s·cm^−5) at enrollment but not have severe hepatic impairment (defined as Child-Pugh Class C or Model for End-Stage Liver Disease (MELD) score ≥19). Subjects were required to have 6-minute walk distance (6MWD) ≥50 m at enrollment but they could belong to any WHO FC. Patients were randomized at 36 sites in seven countries. The core study comprised the following periods:
The primary efficacy endpoint was: • Relative change from baseline to Week 12 in PVR, expressed as ratio of Week 12 to baseline PVR (Week 12 PVR divided by baseline PVR).
(i) Hemodynamic measurements—right heart catheterization: Invasive cardiac hemodynamic variables were measured according to the RHC guidelines at Baseline (Visit 1/Screening) and Week 12, or at permanent discontinuation of DB study treatment if prior to Week 12 (at the investigator's discretion). The thermodilution technique was used to measure cardiac output (CO). For each patient, a maximum of two RHC procedures were performed during the study. The following variables were measured: Heart rate (HR), PAWP or LVEDP (if PAWP is not available), mRAP, systolic/diastolic/mean pulmonary arterial pressure (PAP), CO, SVO2. PVR was calculated at Visit 1/Screening. The following hemodynamic variables were calculated for analysis purposes: PVR, TPR, cardiac index.
The primary efficacy endpoint is: • Relative change from baseline to Week 12 in PVR, expressed as ratio of Week 12 to baseline PVR (Week 12 PVR divided by baseline PVR). • Calculated PVR was used for the efficacy analyses.
The primary analysis was performed on the FAS and using calculated PVR. PVR was summarized by time point and treatment group using descriptive statistics. Ratio of Week 12 to baseline was summarized using geometric means and coefficients of variation (CVs). The ratio of Week 12 to baseline PVR was log-transformed (base e) and analyzed using ANCOVA with factors for treatment group (macitentan versus placebo), background PAH-specific therapy at baseline (Yes/No as per IXRS, randomization stratification factor), region (Europe/North America/Latin America as per IXRS, randomization stratification factor) and a covariate for baseline log-transformed PVR. The treatment group difference (on log scale) and its 95% confidence interval (2-sided) were estimated based on the model. The geometric mean ratio (macitentan versus placebo) and its 95% confidence interval (2-sided) were obtained by exponentiation. […] The log transformation for PVR is justified by the fact that ratios versus baseline follow a normal distribution more closely after a log transformation. In addition, mean absolute changes from baseline on log scale can be translated into (geometric) mean ratios by exponentiation.
A sensitivity analysis was performed applying main ANCOVA analysis without the stratification factors (background PAH-specific therapy at baseline and region). […]

[1] = 10 mg o.d. oral, DB period, FAS with imputation, n=43
[2] = 10 mg o.d., FAS with imputation, n=43
[3] = Week 12 vs baseline, macitentan group
[4] = change to Week 12, ANCOVA, FAS, listed as Macitentan
[5] = patients receiving macitentan, FAS no imputation

Question: Which “PVR at Week 12, mean” value [1] does the source give for `CCCNS(=O)(=O)Nc1ncnc(OCCOc2ncc(Br)cn2)c1-c1ccc(Br)cc1` [macitentan, N-[5-(4-Bromophenyl)-6-[2-[(5-bromo-2-pyrimidinyl)oxy]ethoxy]-4-pyrimidinyl]-N′-propylsulfamide] here?
Answer: 350.3 dyn.sec/cm^5

Question: What about the “PVR at Week 12, median” value [1] of the same molecule?
Answer: 328.6 dyn.sec/cm^5

Question: And the “Mean (±SD) decrease in PVR from baseline to Week 12” value (10 mg o.d., FAS)?
Answer: 202.1 (±123.56) dyn·sec/cm^5

Question: What about the “Change from baseline to Week 12 in PVR, mean” value [2] of the same molecule?
Answer: −202.1 dyn.sec/cm^5

Question: And the “Change from baseline to Week 12 in PVR, median” value [2]?
Answer: −179.9 dyn.sec/cm^5

Question: And the “Ratio of Week 12 to baseline PVR, geometric mean (95% CLs)” value [2]?
Answer: 0.63 (0.58, 0.67)

Question: And the “Ratio of baseline PVR at Week 12, median” value [2]?
Answer: 0.60

Question: And the “Ratio of Week 12 to baseline PVR, geometric mean (95% CLs)” value (10 mg o.d., FAS with imputation, n=43, listed as Macitentan)?
Answer: 0.63

Question: What about the “LS mean difference Macitentan 10 mg-Placebo, log(ratio of baseline PVR at Week 12)” value (ANCOVA, FAS) of the same molecule?
Answer: −0.43

Question: And the “LS mean of log(ratio of baseline PVR at Week 12)” value (ANCOVA, FAS, macitentan group)?
Answer: −0.41

Question: And the “Model-adjusted geometric mean of ratio of baseline PVR at Week 12” value (ANCOVA, FAS, macitentan group)?
Answer: 0.67

Question: What about the “SVO2 at Week 12, mean” value (FAS with imputation, n=41) of the same molecule?
Answer: 70.3%

Question: What about the “SVO2 change from baseline to Week 12, mean” value (FAS with imputation, n=41) of the same molecule?
Answer: 1.1%

Question: And the “mRAP at Week 12, mean” value (FAS with imputation, n=42)?
Answer: 9.0 mmHg

Question: What about the “mRAP change from baseline to Week 12, mean” value (FAS with imputation, n=42) of the same molecule?
Answer: 1.6 mmHg

Question: And the “Cardiac index at Week 12, mean” value (FAS with imputation, n=43)?
Answer: 3.7 L/min/m^2

Question: And the “Cardiac index change from baseline to Week 12, mean” value (FAS with imputation, n=43)?
Answer: 0.6 L/min/m^2

Question: What about the “TPR at Week 12, mean” value (FAS with imputation, n=43) of the same molecule?
Answer: 489.4 dyn · sec/cm^5

Question: What about the “TPR change from baseline to Week 12, mean” value (FAS with imputation, n=43) of the same molecule?
Answer: −199.8 dyn · sec/cm^5

Question: What about the “mPAP Change from baseline to Week 12, Mean” value (FAS with imputation, n=43) of the same molecule?
Answer: −6.4 mmHg

Question: What about the “mPAP at Week 12, mean” value (FAS with imputation, n=43) of the same molecule?
Answer: 40.0 mmHg

Question: And the “Effect on PVR across demographic and baseline disease subgroups” value (FAS, subgroup analyses, Week 12)?
Answer: consistent with the overall treatment effect, with no indication of heterogeneity

Question: And the “Geometric mean ratio of macitentan versus placebo (95% CLs), PVR, slope imputation” value (Week 12, ANCOVA, FAS N=85)?
Answer: 0.65 (0.59, 0.72),

Question: And the “Model-adjusted geometric mean ratio of PVR (macitentan over placebo), primary analysis” value (Week 12, ANCOVA, FAS N=85)?
Answer: 0.65 (0.59, 0.72), p < 0.0001

Question: What about the “Difference in LS means macitentan-placebo, change from baseline in PVR (no log-transformation)” value (Week 12, ANCOVA, FAS N=85 (Table 10)) of the same molecule?
Answer: −180.71 dyn.sec/cm^5

Question: And the “Model-adjusted geometric mean ratio of PVR (macitentan over placebo), primary analysis” value (Week 12, ANCOVA, FAS N=85, listed as Macitentan)?
Answer: 0.65

Question: What about the “Treatment effect: geometric mean ratio of PVR ratio (macitentan vs placebo)” value (Week 12, FAS with imputation, descriptive (Table 8)) of the same molecule?
Answer: 0.64

Question: And the “LS Mean difference (macitentan-placebo), ANCOVA (Absolute Change) of PVR” value (Week 12, N=85 (Table 12))?
Answer: −180.71 meters

Question: What about the “Reduction in PVR vs placebo” value (Week 12, from adjusted geometric mean ratio) of the same molecule?
Answer: 35%

Question: What about the “Patients with an increase in PVR” value [3] of the same molecule?
Answer: 1 patient

Question: And the “Patients with no change in PVR” value [3]?
Answer: 1 patient

Question: And the “SVO2: difference in LS means macitentan-placebo” value (change to Week 12, ANCOVA, FAS)?
Answer: No clinically significant effect; also recorded: No clinically relevant effect

Question: What about the “mRAP: difference in LS means macitentan-placebo” value (change to Week 12, ANCOVA, FAS) of the same molecule?
Answer: No clinically significant effect; also recorded: No clinically relevant effect

Question: And the “Cardiac index: difference in LS means macitentan-placebo” value [4]?
Answer: 0.52 L/min/m^2

Question: And the “SVO2: difference in LS means macitentan-placebo” value [4]?
Answer: 0.03%

Question: And the “TPR: difference in LS means macitentan-placebo” value [4]?
Answer: −171.48 dyn · sec/cm^5

Question: What about the “mPAP: difference in LS means macitentan-placebo” value [4] of the same molecule?
Answer: −5.99 mmHg

Question: And the “mRAP: difference in LS means macitentan-placebo” value [4]?
Answer: 1.67 mmHg

Question: What about the “PAWP/LVEDP treatment difference based on change from baseline to Week 12” value (macitentan vs placebo) of the same molecule?
Answer: 2.4 mmHg

Question: And the “Mean PAWP/LVEDP (SD) at Week 12” value [5]?
Answer: 11.4 (4.2) mmHg

Question: And the “PAWP/LVEDP mean (SD) change from baseline at Week 12” value [5]?
Answer: 2.1 (3.7) mmHg
